Experimental data: PubChem BioAssay AID977605 (Broad Institute, 2014)
Activity calls are given as the source filed them.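 The calls were made as follows: active = fitted curve reaches 40% activation below the top valid tested dose, in every test run; inconclusive = test runs disagree on the call; inactive = the rest, including effects opposite to the expected direction.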

Assay: E-selectin inducers in HUVECs, dose response, imaging, HUVEC, cherry-picked samples (AID 977605);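 also: signal is the share of imaged cells scored positive for E-selectin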
Details: HUVEC E-selectin immunostaining, at 18 µM (top of the series), percent of TNF-alpha response over vehicle

| Structure (SMILES) | activation |
| --- | --- |
| C[C@@H]1CN([C@H](C)CO)C(=O)Cc2cc(NC(=O)Cc3ccccc3)ccc2O[C@H]1CN(C)C(=O)Nc1cccc2ccccc12 | 0.676% (inactive) |

Same assay, conditions: HUVEC E-selectin immunostaining, at 19.5 µM (top of the series)

| Structure (SMILES) | activation |
| --- | --- |
| Cc1cccc(CN2CCCC(C(=O)c3ccc4c(c3)OCO4)C2)n1 (centres undefined) | 4.78% (inactive) |
| CN1CCN(c2cn[nH]c(=O)c2Cl)CC1 | -0.235% (inactive) |

Same assay, conditions: HUVEC E-selectin immunostaining, at 19.5 µM (top of the series), percent of TNF-alpha response over vehicle

| Structure (SMILES) | activation |
| --- | --- |
| COc1ccc(S(=O)(=O)N(C)C[C@H]2Oc3ccc(NS(=O)(=O)c4c(C)noc4C)cc3C(=O)N([C@@H](C)CO)C[C@H]2C)cc1 | 0.307% (inactive) |
| C[C@H]1CN([C@@H](C)CO)C(=O)Cc2cc(NC(=O)c3ccncc3)ccc2O[C@H]1CN(C)C(=O)Nc1ccc(C(F)(F)F)cc1 | 0.212% (inactive) |
| C[C@@H]1CN([C@@H](C)CO)C(=O)c2cccc(NC(=O)Nc3ccc4c(c3)OCO4)c2O[C@H]1CN(C)S(=O)(=O)c1ccc(F)cc1 | -0.076% (inactive) |
| Cc1noc(C)c1COc1ccccc1C(=O)N1CCN(S(=O)(=O)c2ccc(F)c(F)c2)CC1 | 0.069% (inactive) |
| O=C1Nc2ccccc2C1Cc1ccccn1 (centres undefined) | -0.092% (inactive) |
| CCn1c(SCC(=O)N(C)Cc2ccc(OC)c(F)c2)nc2cc(S(N)(=O)=O)ccc21 | -0.113% (inactive) |
| Cc1noc(C)c1NC(=O)Nc1ccc2c(c1)CC(=O)N([C@H](C)CO)C[C@@H](C)[C@H](CN(C)C(=O)Nc1ccc(F)cc1)O2 | -0.18% (inactive) |
| Cc1nn(CCS(=O)(=O)c2ccc(Cl)cc2)c(C)c1Br | 0.08% (inactive) |
| Cc1ccc(S(=O)(=O)N[C@@H](Cc2ccccc2)C(=O)N2CCC(C(=O)N[C@@H](CCC(N)=O)C(=O)O)CC2)cc1 | 0.009% (inactive) |
| COc1ccc(S(=O)(=O)N(C)C[C@H]2Oc3c(NC(=O)Nc4c(C)noc4C)cccc3C(=O)N([C@@H](C)CO)C[C@H]2C)cc1 | -0.174% (inactive) |
| CC12CCC(=O)N1C(C(=O)Nc1cc(Cl)ccc1N1CCOCC1)CS2 (centres undefined) | -0.124% (inactive) |
| OC(CSc1ccc(F)cc1)CN1CCN(c2ccccc2)CC1 (centres undefined) | -0.165% (inactive) |
| COCC(=O)N(C)C[C@@H]1Oc2cc(-c3ccc(F)cc3)ccc2S(=O)(=O)N([C@H](C)CO)C[C@H]1C | -0.159% (inactive) |
| Cc1ccc(S(=O)(=O)Nc2ccc3c(c2)C(=O)N([C@H](C)CO)C[C@H](C)[C@H](CN(C)C(=O)Nc2cccc4ccccc24)OCCCC[C@@H](C)O3)cc1 | 7.64% (inactive) |
| Cc1ccc(S(=O)(=O)Nc2ccc3c(c2)C(=O)N([C@H](C)CO)C[C@@H](C)[C@H](CN(C)Cc2ccc(-c4ccccc4)cc2)O3)cc1 | -0.157% (inactive) |
| COc1ccc(NC(=O)N(C)C[C@H]2Oc3c(NS(=O)(=O)c4cn(C)cn4)cccc3C(=O)N([C@@H](C)CO)C[C@@H]2C)cc1 | 0.542% (inactive) |
| C[C@H](CO)N1C[C@H](C)[C@H](CN(C)Cc2ccc(Cl)c(Cl)c2)Oc2ccc(NS(=O)(=O)c3cccs3)cc2C1=O | 0.328% (inactive) |
| COc1ccc(S(=O)(=O)N2CCOCC2)cc1C(=O)NCc1ccccc1CN1CCCC1 | 0.269% (inactive) |
| COC(=O)c1noc(C)c1-c1ccnn1C(=O)c1ccc(C)cc1 | 0.122% (inactive) |
| C[C@H](CO)N1C[C@H](C)[C@H](CN(C)S(=O)(=O)c2ccccc2)Oc2c(NC(=O)Nc3ccccc3)cccc2C1=O | -0.014% (inactive) |
| Brc1cnc2nc(SCc3nc4ccccc4[nH]3)[nH]c2c1 | 1.19% (inactive) |
| C[C@H](CO)N1C[C@H](C)[C@H](CN(C)Cc2ccc3c(c2)OCO3)Oc2ccc(NC(=O)Cc3cn(C)c4ccccc34)cc2C1=O | 0.14% (inactive) |
| CCCCOCC1CN(CCCC)S(=O)(=O)c2c(Oc3ccc(C(C)C)cc3)cccc2O1 (centres undefined) | -0.279% (inactive) |
| O=C(c1cncc(Br)c1)N1CCN(S(=O)(=O)c2ccccc2C(F)(F)F)CC1 | -0.01% (inactive) |
| C[C@H]1CN([C@@H](C)CO)C(=O)c2cccc(NC(=O)c3ccc(-c4nccs4)cc3)c2O[C@@H]1CN(C)Cc1ccc(Cl)c(Cl)c1 | 4.07% (inactive) |
| CCCN(C)C[C@@H]1Oc2ncc(-c3ccccc3)cc2C(=O)N([C@H](C)CO)C[C@@H]1C | -0.269% (inactive) |
| Cc1ccc(-n2ncc3c(=O)[nH]c(SC(C)C)nc32)cc1 | 0.023% (inactive) |

| Structure (SMILES) | activation |
| --- | --- |
| c1ccc(Nc2nnc(-c3cccnc3)s2)cc1 | 0.863% (inactive) |
| O=C(Cc1ccc(-n2c(=O)c3sccc3n(Cc3ccc(F)cc3)c2=O)cc1)NCc1ccco1 | 0.008% (inactive) |
| CC(=O)Nc1ccc(NC(=O)COc2ccc(Cl)cc2Cl)cc1 | -0.194% (inactive) |
| COc1ccc(NC(=O)c2cc(S(=O)(=O)N3CCCCC3)c[nH]2)cc1 | 0.335% (inactive) |
| CC(C)(C)CC(=O)Nc1ccc(-c2cn3cccnc3n2)cc1 | 0.057% (inactive) |
| C[C@@H]1CN([C@H](C)CO)C(=O)c2cccc(NS(=O)(=O)c3cn(C)cn3)c2O[C@@H]1CN(C)Cc1ccc(Cl)c(Cl)c1 | 0.02% (inactive) |
| C[C@@H]1CN([C@@H](C)CO)C(=O)Cc2cc(NC(=O)Cc3cn(C)c4ccccc34)ccc2O[C@H]1CN(C)Cc1ccc(C(F)(F)F)cc1 | 1.99% (inactive) |
| C[C@H]1CN([C@@H](C)CO)C(=O)c2cc(NC(=O)Cn3cnnn3)ccc2O[C@H]1CN(C)S(=O)(=O)c1ccccc1 | -0.003% (inactive) |
| C[C@@H]1CN([C@H](C)CO)C(=O)c2cc(NS(C)(=O)=O)ccc2O[C@H]1CN(C)C(=O)Nc1ccccc1 | -0.057% (inactive) |
| COc1ccc(CN(C)C[C@@H]2Oc3ccc(N(C)C)cc3CC(=O)N([C@@H](C)CO)C[C@@H]2C)cc1 | -0.012% (inactive) |
| C[C@H](CO)N1C[C@H](C)[C@@H](CN(C)Cc2ccccc2)Oc2c(NC(=O)C3CC3)cccc2C1=O | -0.084% (inactive) |
| C[C@H]1CN([C@@H](C)CO)C(=O)c2cc(NC(=O)CCCN(C)C)ccc2O[C@H]1CN(C)Cc1ccc(C(F)(F)F)cc1 | -0.127% (inactive) |
| CCOC(=O)[C@]12CCCC=C1N(Cc1ccccc1)C(=O)[C@H](CC(=O)NCc1cccc3ccccc13)C2 | 0.13% (inactive) |
| CC(C)NC(=O)N(C)C[C@@H]1Oc2ccc(NS(=O)(=O)c3cccs3)cc2CC(=O)N([C@@H](C)CO)C[C@H]1C | 0.096% (inactive) |
| C[C@@H]1CN([C@H](C)CO)C(=O)c2cc(C#Cc3cccc(F)c3)cnc2O[C@H]1CN(C)C(=O)C1CCC1 | 0.008% (inactive) |
| Cc1ccc(S(=O)(=O)NC(Cc2ccccc2)C(=O)O)cc1C (centres undefined) | -0.133% (inactive) |
| C[C@H](CO)N1C[C@H](C)[C@H](CN(C)S(=O)(=O)c2ccc(Cl)cc2)Oc2ccc(NC(=O)Cc3ccccc3)cc2C1=O | -0.076% (inactive) |
| C[C@@H]1CN([C@H](C)CO)C(=O)c2cc(NC(=O)Cn3cnnn3)ccc2O[C@H]1CN(C)S(=O)(=O)c1ccccc1 | 0% (inactive) |
| NS(=O)(=O)c1ccc(NC(=O)CCC(=O)N2CCOCC2)cc1 | 0.021% (inactive) |
| CCOc1cc(N2CCOCC2)c(OCC)cc1NC(=O)c1ccc(S(=O)(=O)N2CC(C)OC(C)C2)cc1 (centres undefined) | -0.215% (inactive) |
| COc1ccc(NC(=O)Nc2cccc3c2O[C@@H](CN(C)C(=O)NC2CCCCC2)[C@H](C)CN([C@H](C)CO)C3=O)cc1 | 0.507% (inactive) |
| Cc1ccccc1NC(=O)c1cc(S(=O)(=O)Nc2cccc(C(=O)O)c2)ccc1Cl | 0.3% (inactive) |
| C[C@@H]1CN([C@@H](C)CO)C(=O)c2cc(NC(=O)Cn3cnnn3)ccc2O[C@@H]1CN(C)Cc1ccc(Oc2ccccc2)cc1 | -0.116% (inactive) |
| C[C@H](CO)N1C[C@H](C)[C@@H](CN(C)Cc2ccc(C(F)(F)F)cc2)Oc2ccc(NC(=O)CCC(F)(F)F)cc2C1=O | 0.441% (inactive) |
| CC(C)(C)c1ccc(NC(=O)N2CCCN(c3ccc([N+](=O)[O-])cn3)CC2)cc1 | 0.154% (inactive) |
| C[C@@H]1CN([C@H](C)CO)C(=O)c2cc(NC(=O)CCN3CCOCC3)ccc2O[C@@H]1CN(C)Cc1ccncc1 | -0.14% (inactive) |
| COc1ccc(CN(C)C[C@@H]2Oc3ccc(NC(=O)Nc4ccc(F)cc4)cc3CC(=O)N([C@H](C)CO)C[C@@H]2C)cc1 | -0.068% (inactive) |

Same assay, conditions: HUVEC E-selectin immunostaining, at 21 µM (top of the series), percent of TNF-alpha response over vehicle

| Structure (SMILES) | activation |
| --- | --- |
| CC(C)NC(=O)Nc1ccc2c(c1)CC(=O)N([C@H](C)CO)C[C@H](C)[C@H](CN(C)Cc1ccc(Cl)c(Cl)c1)O2 | 0.284% (inactive) |
| CC(C)NC(=O)N(C)C[C@H]1Oc2c(NC(=O)CCCCCC(=O)Nc3ccccc3N)cccc2C(=O)N([C@@H](C)CO)C[C@H]1C | -0.093% (inactive) |
| C[C@H]1CN([C@@H](C)CO)C(=O)c2cc(NS(=O)(=O)c3cccs3)ccc2O[C@H]1CN(C)S(C)(=O)=O | 0.402% (inactive) |
| COc1ccc(S(=O)(=O)Nc2ccc3c(c2)C(=O)N([C@@H](C)CO)C[C@@H](C)[C@@H](CN(C)Cc2ccc(Cl)c(Cl)c2)O3)cc1 | -0.053% (inactive) |
| COc1ccc(S(=O)(=O)Nc2cccc3c2O[C@H](CN(C)C(=O)Nc2c(C)noc2C)[C@@H](C)CN([C@H](C)CO)C3=O)cc1 | -0.117% (inactive) |
| Cc1noc(C)c1NC(=O)Nc1ccc2c(c1)CC(=O)N([C@H](C)CO)C[C@H](C)[C@H](CN(C)S(=O)(=O)c1ccccc1)O2 | -0.132% (inactive) |
| CNC[C@@H]1Oc2c(NC(=O)Nc3ccc(F)cc3)cccc2C(=O)N([C@H](C)CO)C[C@H]1C | -0.191% (inactive) |
| C[C@H]1CN([C@@H](C)CO)C(=O)c2cccc(NS(=O)(=O)c3cn(C)cn3)c2O[C@@H]1CN(C)C(=O)Nc1ccc(F)cc1 | -0.136% (inactive) |
| COc1ccc(S(=O)(=O)N(C)C[C@H]2Oc3ccc(NC(=O)Nc4ccc5c(c4)OCO5)cc3CC(=O)N([C@H](C)CO)C[C@H]2C)cc1 | 0.257% (inactive) |
| CCNC(=O)C[C@@H]1CC[C@@H]2[C@@H](COc3ccc(NC(=O)Nc4cccc(OC)c4)cc3C(=O)N2C)O1 | 0.153% (inactive) |
| C[C@@H]1CN([C@H](C)CO)C(=O)c2cccc(NC(=O)C3CC3)c2O[C@H]1CN(C)CC1CC1 | -0.061% (inactive) |
| C[C@@H]1CN([C@H](C)CO)C(=O)Cc2cc(NC(=O)Nc3ccc(F)cc3)ccc2O[C@@H]1CN(C)Cc1ccncc1 | -0.095% (inactive) |
